Source: patent publication US20220339178A1, “COMPOSITIONS AND METHODS FOR COGNITIVE PROTECTION OF POLLINATORS AGAINST PESTICIDES” (priority 2019, published 2022)

System: bumblebee Bombus impatiens
Assay: Olfactory conditioning of PER in bumblebees: rutin vs imidacloprid
Assay type: in vivo
Description: One colony of the bumblebee Bombus impatiens (Koppert Inc) was kept in laboratory conditions. Bees received pollen inside the nests and foraged to a 1M sugar-water feeder outside of the nest. Bees were collected while on the feeder and iced anesthetized to then be yolked restrained in plastic pipettes. Bees were maintained in the pipettes for the entire duration of the experiment (five days).
Control: 1M sugar water (20 μL) fed twice a day for three consecutive days;
Rutin: 1 μM Rutin (Sigma-Aldrich R5143) diluted in 1M sugar water (20 μL) fed twice a day for three days before training on the fourth day;
Imid: fed with 1M sugar water (20 μL) twice a day for three days and fed with 20 μL of 5 nM Imidacloprid (Prime Source LLC, IN, USA) in 1M sugar water 2 hours before training on the fourth day; and
Rutin+Imid: Bees fed with 1 μM Rutin diluted in 1M sugar water (20 μL) for three days before training and receiving 20 μL of 5 nM Imidacloprid in 1M sugar water 2 hours before training on the fourth day.
All bees were trained using olfactory conditioning of the proboscis extension response (PER). Briefly, bees were exposed to a presentation of 1-nonanol (Sigma-Aldrich) for 10 s. After 7 s of the onset of the odor presentation, the antenna was stimulated with 1.5 M sugar-water to elicit the PER. Following the PER, the bee was allowed to drink sugar-water for 3 s. Each paired presentation was considered a training trial and each individual received eleven training trials with an average intertrial interval of 10 minutes. After training, all bees were fed 20 μL of 1M sugar water and maintained in plastic boxes for 24 h until the retention test. […] Twenty-four hours after the last training trial the bees were presented with the conditioned odor for 10 s.
Performance for each individual was quantified as the number of conditioned PER responses across the trials. Thus, for each bee a score between zero and ten (0-10) was recorded.
Multiple comparisons were then run using Wilcoxon-tests between groups using single or two-tailed t-tests depending upon predictions (bees on all treatments were predicted to perform better than bees in the Imidacloprid group). Error due to multiple comparisons was controlled using the False Discovery Rate method (FDR-two stage sharpened method). In all cases corrected p-values are presented.
Acquisition learning (i.e. learning curves) was compared between bees fed with imidacloprid vs. protected bees using Repeated measures.
Retention was quantified as a nominal variable (yes/no). Data were compared across treatments using a Chi-square test, followed by multiple comparisons between pairs of treatments. Error due to multiple comparisons was controlled using the FDR as indicated above. In all cases corrected p-values are presented.
Latency was quantified as a continuous variable between 0.5 s and 10 s. Data were compared across treatments using an ANOVA following a Log transformation to normalize the distribution (Shapiro-Wilk W Test after log transformation: W=0.99, p=0.55), followed by multiple comparisons between groups using two-tailed t-test. Error due to multiple comparisons was controlled using the FDR method as indicated above. In all cases corrected p-values are presented.

## O=[N+]([O-])NC1=NCCN1Cc1ccc(Cl)nc1 [Imidacloprid]
Acquisition curves, repeated measures MANOVA
  learning across trials relative to Rutin+Imidacloprid bees: significantly lower
bumblebees
  latency of response relative to Control bees: significantly longer
  latency of response relative to bees fed with Rutin: significantly longer
  latency of response relative to bees prophylactically fed with Rutin: not different
  memory retention after 24 h relative to Control group: significantly lower
  memory retention after 24 h relative to Rutin group: significantly lower
  memory retention after 24 h relative to Rutin+Imidacloprid group: significantly lower
bumblebees, score 0-10, rutin 1 μM twice a day for three days, imidacloprid 5 nM 20 μL 2 hours before training
  performance score relative to Control bees: significantly lower
